In article PMC7539557 (ACS infectious diseases, 2020):
Several values for one entry are separate records, joined by “and”; a condition that tells them apart may be missing. Identical values can stand only once. Entries after “also recorded” stand apart in the source; their conditions may differ. Like-named read-outs stand apart in the source and are kept apart here.

Legend:
MHV-A59 [1] = format: cell-based, Murine hepatitis virus; settings: for IC50: DFMO pretreatment 4 days, CPX, DEF, GC7 24h
MHV [2] = assay: Direct incubation of MHV with compound, then titering; set-up: species or system Murine hepatitis virus; settings: 10 μM for 24h, then titered
HCoV-NL63 = HCoV-NL63 qPCR-based attachment assay on Vero-E6 cells; format: cell-based; settings: DFMO-treated Vero-E6 cells
MERS-CoV = settings: in vitro, dose of 500 μM; cited from earlier work
MHV-A59 [3] = assay: Plaque size measurement with DFMO applied at time of infection; format: cell-based, Murine hepatitis virus
MHV [4] = assay: MHV attachment assays; format: cell-based, Murine hepatitis virus
SARS-CoV-2 = format: cell-based; settings: 5 mM DFMO, Vero-E6, MOI 0.1, 24 hpi
[5] = tested on: SARS-CoV-2 pseudoparticles; format: cell-based; settings: DFMO-treated Vero-E6 cells
MHV-A59 [6] = format: cell-based, Murine hepatitis virus
cellular polyamines = assay: Thin-layer chromatography of cell-associated polyamines; format: cell-based

Cc1c(O)c(=O)ccn1C [DEF, deferiprone]
MHV replication (MHV-A59 [1]): significantly reduced MHV replication in a dose-dependent manner | cytotoxicity (BHK-R cells): cytotoxicity was minimal

NCCCCNCCCN [spermidine]
effect of exogenous polyamine on MHV titers (MHV-A59 [1]): modestly reduced viral titers; also recorded: does not inhibit or restrict virus replication | rescue of MHV replication in DFMO-treated cells (MHV-A59 [1]): rescued virus replication to untreated levels | infectivity of MHV after direct incubation (MHV [2]): titers were unchanged

Cc1cc(C2CCCCC2)n(O)c(=O)c1 [CPX, ciclopirox]
MHV replication (MHV-A59 [1]): significantly reduced MHV replication in a dose-dependent manner | cytotoxicity (BHK-R cells): cytotoxicity was minimal

NCCCCCCCN=C(N)N [GC7]
MHV replication (MHV-A59 [1]): significantly reduced MHV replication in a dose-dependent manner | IC50 (MHV-A59 [1]): 7.4 µM | cytotoxicity (BHK-R cells): cytotoxicity was minimal

NCCCNCCCCNCCCN [spermine]
effect of exogenous polyamine on MHV titers (MHV-A59 [1]): modestly reduced viral titers; also recorded: reduces virus replication | rescue of MHV replication in DFMO-treated cells (MHV-A59 [1]): rescued virus replication to untreated levels | cytotoxicity (BHK-R cells): significant cytotoxicity | infectivity of MHV after direct incubation (MHV [2]): titers were unchanged

NCCCCN [putrescine]
effect of exogenous polyamine on MHV titers (MHV-A59 [1]): modestly reduced viral titers | rescue of MHV replication in DFMO-treated cells (MHV-A59 [1]): rescued virus replication to untreated levels | infectivity of MHV after direct incubation (MHV [2]): titers were unchanged

NCCCC(N)(C(=O)O)C(F)F (stereo not shown) [DFMO, difluoromethylornithine]
HCoV-NL63 attachment (HCoV-NL63): attachment was sensitive to DFMO treatment | MHV genome levels in supernatant (qPCR) (MHV-A59 [1]): reduced genome levels | MHV production after repeated versus single dosing (MHV-A59 [1]): repeated dosing is as effective as a single drug treatment | MHV titers over several rounds of replication (MHV-A59 [1]): reduced viral titers compared to no treatment group up to 72 h | antiviral effect after drug removal (MHV-A59 [1]): completely reversed | specific infectivity (genomes per PFU) (MHV-A59 [1]): increased the ratio of genomes to titer | IC50 (MHV-A59 [1]): 380 µM | sensitivity of MERS-CoV (MERS-CoV): sensitive | plaque size (MHV-A59 [3]; BHK-R cells, DFMO in overlay media at time of infection): no changes in plaque size | plaque area (MHV-A59 [3]; HeLa-R cells, DFMO at time of infection): small, though statistically insignificant change | attachment and plaque formation (MHV [4]): significantly inhibited | bound viral genomes (qRT-PCR) (MHV [4]): significantly reduced | reduction of SARS-CoV-2 genomes (SARS-CoV-2): greater than 50 fold | cellular attachment of SARS-CoV-2 pseudoparticles [5]: reduction in cellular attachment of SARS-CoV-2 pseudoparticles in a dose-dependent manner | IC50 (MHV-A59 [6]): ~7 µM and 7 µM | toxicity (HeLa-R cells): not toxic to these cells | polyamine levels by TLC (cellular polyamines; BHK-R cells): depleted polyamines | polyamine levels by TLC (cellular polyamines; HeLa-R cells, DENSpm at 10 μM): reduced polyamines | polyamine levels by TLC (cellular polyamines; Vero-E6 cells, 750 μM to 5 mM DFMO): successfully depleted polyamines | infectivity of MHV after direct incubation (MHV [2]): titers were unchanged
